Entries after “also recorded” stand apart in the source; their conditions may differ.
Columns and labels:
[1] = tested on: panel of 55 breast cancer cell lines; experiment: Cell growth inhibition assay (Cell Titer Glo, 72 h, 9 doses; GI50, TGI, LC50); assay type: cell-based, human; conditions: value is the negative log10 of mol/L
[2] = tested on: luminal, basal, claudin-low and ERBB2AMP breast cancer cell lines; experiment: Associations of clinically relevant subtypes and response (non-parametric ANOVA or t-test on GI50 ranks); assay type: cell-based, human; conditions: for subtype-specific response (sensitivity by transcriptional subtype): GI50 across subtypes; for Subtype specificity: Table 6, most sensitive subtype, FDR p<0.20
Excerpt: A central premise of this study is that associations between responses and molecular subtypes observed in preclinical cell line analyses will be recapitulated in the clinic in instances where the predictive molecular features in the cell lines are mirrored in human tumors. We established response-subtype associations by using non-parametric ANOVAs to compare […] values across transcriptional and genomics subtypes.
Differences between GI50s of the groups were compared with a non-parametric ANOVA or t-test, as appropriate, on the ranks. We combined the p-values for the three sets of tests and used false discovery rate (FDR) to correct for multiple testing. For the three-sample test, we performed a post-hoc analysis on the compounds with a significant class effect by comparing each group to all others to determine which group was most sensitive. The p-values for the post-hoc test were FDR-corrected together. In all cases, FDR p<0.20 was deemed significant. […] Analyses were performed in R.

[3] = AU565 cell line, censored GI50 values
[4] = BT20 cell line, censored GI50 values
[5] = BT474 cell line, censored GI50 values
[6] = BT483 cell line, censored GI50 values
[7] = HCC38 cell line, censored GI50 values
[8] = HCC70 cell line, censored GI50 values
[9] = HCC1187 cell line, censored GI50 values
[10] = HCC1419 cell line, censored GI50 values
[11] = HCC1428 cell line, censored GI50 values
[12] = HCC3153 cell line, censored GI50 values
[13] = MDAMB134VI cell line, censored GI50 values
[14] = MDAMB361 cell line, censored GI50 values
[15] = MDAMB436 cell line, censored GI50 values
[16] = MDAMB453 cell line, censored GI50 values
[17] = MDAMB468 cell line, censored GI50 values
[18] = SUM159PT cell line, censored GI50 values
[19] = SUM1315MO2 cell line, censored GI50 values

In the case of Cc1cc(Nc2cc(N3CCN(C)CC3)nc(Sc3ccc(NC(=O)C4CC4)cc3)n2)n[nH]1 [VX-680], the GI50 [1, 3] is reported as 5.66, the GI50 [1, 4] is reported as 4.72 and the GI50 [1, 5] is reported as 4.54. The GI50 [1, 6] was 5.44, the GI50 [1, 7] was 6.94 and the GI50 [1, 8] was 5.35. The GI50 ([1]; HCC1143 cell line, censored GI50 values) was 5.98, the GI50 [1, 9] was 6.93 and the GI50 [1, 10] was 4.81. The GI50 [1, 11] was 5.10, the GI50 ([1]; HCC1500 cell line, censored GI50 values) was 4.56 and the GI50 ([1]; HCC1937 cell line, censored GI50 values) was 5.10. For the same compound, the GI50 ([1]; HCC2185 cell line, censored GI50 values) was 6.46, the GI50 [1, 12] was 4.76 and the GI50 ([1]; MCF7 cell line, censored GI50 values) was 5.08. It also gave a GI50 [1, 13] of 6.11, a GI50 ([1]; MDAMB175VII cell line, censored GI50 values) of 4.61 and a GI50 [1, 14] of 5.63. It also gave a GI50 ([1]; MDAMB415 cell line, censored GI50 values) of 4.86, a GI50 [1, 15] of 6.19 and a GI50 [1, 16] of 5.03. The GI50 [1, 17] was 6.95, the GI50 ([1]; SUM52PE cell line, censored GI50 values) was 6.41 and the GI50 ([1]; SUM149PT cell line, censored GI50 values) was 5.07. The GI50 [1, 18] was 6.37, the GI50 ([1]; SUM185PE cell line, censored GI50 values) was 5.62 and the GI50 [1, 19] was 5.65. The GI50 ([1]; T47D cell line, censored GI50 values) was 5.03, the GI50 ([1]; ZR75B cell line, censored GI50 values) was 6.79 and the GI50 ([1]; ZR751 cell line, censored GI50 values) was 5.27. It also gave a GI50 ([1]; cell line AU565) of 5.66, a GI50 ([1]; cell line BT20) of 4.72 and a GI50 ([1]; cell line BT474) of 4.54. For the same compound, the GI50 ([1]; cell line BT483) was 5.44, the GI50 ([1]; cell line CAMA1) was 4.58 and the GI50 ([1]; cell line HCC38) was 6.94. For the same compound, the GI50 ([1]; cell line HCC70) was 5.35, the GI50 ([1]; cell line HCC1143) was 5.98 and the GI50 ([1]; cell line HCC1187) was 6.93. It also gave a GI50 ([1]; cell line HCC1419) of 4.81, a GI50 ([1]; cell line HCC1428) of 5.10 and a GI50 ([1]; cell line HCC1500) of 4.56. The GI50 ([1]; cell line HCC1937) was 5.10, the GI50 ([1]; cell line HCC1954) was 4.48 and the GI50 ([1]; cell line HCC2185) was 6.46. For the same compound, the GI50 ([1]; cell line HCC3153) was 4.76, the GI50 ([1]; cell line MCF7) was 5.08 and the GI50 ([1]; cell line MDAMB134V) was 6.11. It also gave a GI50 ([1]; cell line MDAMB175V) of 4.61, a GI50 ([1]; cell line MDAMB361) of 5.63 and a GI50 ([1]; cell line MDAMB415) of 4.86. It also gave a GI50 ([1]; cell line MDAMB436) of 6.19, a GI50 ([1]; cell line MDAMB453) of 5.03 and a GI50 ([1]; cell line MDAMB468) of 6.95. For the same compound, the GI50 ([1]; cell line SKBR3) was 4.48, the GI50 ([1]; cell line SUM52PE) was 6.41 and the GI50 ([1]; cell line SUM149PT) was 5.07. The GI50 ([1]; cell line SUM159PT) was 6.37, the GI50 ([1]; cell line SUM185PE) was 5.62 and the GI50 ([1]; cell line SUM1315MO) was 5.65. For the same compound, the GI50 ([1]; cell line T47D) was 5.03, the GI50 ([1]; cell line UACC812) was 4.50 and the GI50 ([1]; cell line ZR75B) was 6.79. The GI50 ([1]; cell line ZR751) was 5.27, the “association of response with ERBB2 amplification” value [2] was “negatively associated with ERBB2 amplification” and the “subtype-specific response (sensitivity by transcriptional subtype)” value (from here on “subtype-specific response”) [2] was “ERBB2^AMP cell lines were resistant; also recorded: ERBB2AMP cell lines are resistant”. For the same compound, the Subtype specificity [2] was “not ERBB2AMP”.

For COc1ncc(-c2ccc3nccc(-c4ccnnc4)c3c2)cc1NS(=O)(=O)c1ccc(F)cc1F [GSK2126458], the Subtype specificity [2] was “Luminal/ERBB2AMP”.

Cc1cc(C(C)Nc2ccccc2)c2nc(N3CCOCC3)cc(=O)n2c1 (stereo not drawn) [TGX-221] gave a GI50 ([1]; 600MPE cell line, censored GI50 values) of 5.09, a GI50 [1, 3] of 5.18 and a GI50 [1, 4] of 4.77. For the same compound, the GI50 [1, 5] was 5.10, the GI50 [1, 6] was 5.37 and the GI50 ([1]; CAMA1 cell line, censored GI50 values) was 5.10. The GI50 [1, 7] was 5.11, the GI50 [1, 8] was 5.98 and the GI50 ([1]; HCC202 cell line, censored GI50 values) was 5.20. It also gave a GI50 [1, 9] of 5.48, a GI50 ([1]; HCC1395 cell line, censored GI50 values) of 5.13 and a GI50 [1, 10] of 5.16. The GI50 [1, 11] was 4.77, the GI50 ([1]; HCC1954 cell line, censored GI50 values) was 4.79 and the GI50 [1, 12] was 4.38. It also gave a GI50 ([1]; LY2 cell line, censored GI50 values) of 4.78, a GI50 [1, 13] of 4.78 and a GI50 ([1]; MDAMB231 cell line, censored GI50 values) of 4.61. It also gave a GI50 [1, 14] of 4.75, a GI50 [1, 15] of 4.72 and a GI50 [1, 16] of 4.81. For the same compound, the GI50 [1, 17] was 6.27, the GI50 ([1]; SKBR3 cell line, censored GI50 values) was 5.33 and the GI50 [1, 18] was 4.49. For the same compound, the GI50 [1, 19] was 5.04, the GI50 ([1]; cell line 600MPE) was 5.09 and the GI50 ([1]; cell line AU565) was 5.18. The GI50 ([1]; cell line BT20) was 4.77 and the Subtype specificity [2] was “Luminal”.

For N.N.[Cl][Pt][Cl] [Cisplatin], the “subtype-specific response” value [2] was “preferential activity in basal and/or claudin-low cell lines; also recorded: basal cell lines are preferentially sensitive; also recorded: Basal breast cancer cell lines preferentially respond” and the Subtype specificity [2] was “Basal”.

O=C1NC(=O)/C(=C/c2ccc3nccc(-c4ccncc4)c3c2)S1 [GSK1059615] was tested, and the Subtype specificity [2] was “Luminal/ERBB2AMP”.

With C[C@@H](Oc1cc(-n2cnc3ccc(CN4CCN(C)CC4)cc32)sc1C(N)=O)c1ccccc1C(F)(F)F [GSK461364] the “subtype-specific response” value [2] was “more active against basal and claudin-low cell lines” and the Subtype specificity [2] was “Basal + Claudin-low”.

For O=C(CCCCCCC(=O)Nc1ccccc1)NO [Vorinostat], the Subtype specificity [2] was “Luminal”.

COc1cc2c(Nc3ccc(NC(=O)c4ccccc4)cc3)ncnc2cc1OCCCN1CCOCC1 [ZM 447439] was tested, and the GI50 ([1]; cell line AU565) was 5.82, the GI50 ([1]; cell line BT20) was 5.29 and the GI50 ([1]; cell line BT474) was 4.20. For the same compound, the GI50 ([1]; cell line BT483) was 4.57, the GI50 ([1]; cell line CAMA1) was 5.40 and the GI50 ([1]; cell line HCC38) was 6.24. The GI50 ([1]; cell line HCC70) was 6.01, the GI50 ([1]; cell line HCC1143) was 4.98 and the GI50 ([1]; cell line HCC1187) was 6.19. The GI50 ([1]; cell line HCC1419) was 5.32, the GI50 ([1]; cell line HCC1428) was 5.13 and the GI50 ([1]; cell line HCC1500) was 5.28. The GI50 ([1]; cell line HCC1937) was 5.23, the GI50 ([1]; cell line HCC1954) was 4.48 and the GI50 ([1]; cell line HCC2185) was 5.92. It also gave a GI50 ([1]; cell line HCC3153) of 4.48, a GI50 ([1]; cell line MDAMB134V) of 4.66 and a GI50 ([1]; cell line MDAMB175V) of 4.28. For the same compound, the GI50 ([1]; cell line MDAMB361) was 5.53, the GI50 ([1]; cell line MDAMB415) was 4.48 and the GI50 ([1]; cell line MDAMB436) was 5.33. For the same compound, the GI50 ([1]; cell line MDAMB453) was 4.45, the GI50 ([1]; cell line MDAMB468) was 6.18 and the GI50 ([1]; cell line SKBR3) was 4.77. The GI50 ([1]; cell line SUM52PE) was 5.40, the GI50 ([1]; cell line SUM149PT) was 4.18 and the GI50 ([1]; cell line SUM185PE) was 4.50. The GI50 ([1]; cell line SUM1315MO) was 4.48, the GI50 ([1]; cell line T47D) was 4.94 and the GI50 ([1]; cell line UACC812) was 4.88. The GI50 ([1]; cell line ZR75B) was 5.00 and the GI50 ([1]; cell line ZR751) was 5.46.

From patent publication US10770169B2, “Method of providing a treatment to a subject based on a dynamic pathway map” (THE REGENTS OF THE UNIVERSITY OF CALIFORNIA, priority 2010, dated 2020)
